From article PMC8545107 (mBio, 2021)
No end group written: not given here.

What was measured:
[1] = molecular target: gallocin gene promoter (PgllA) in S. gallolyticus subsp. gallolyticus UCN34 Δgsp pTCVΩPgllA-gfp (receptor BlpH); experiment: Gallocin induction reporter gene assay (PgllA-gfp); assay type: cell-based, Streptococcus gallolyticus subsp. gallolyticus; conditions: reporter strain UCN34 Δgsp pTCVΩPgllA-gfp; maximum GFP fluorescence normalized with OD600; 37°C; triplicate, three trials, sigmoidal curve fit
From the text: We first aimed at determining the active form of GSP in S. gallolyticus subsp. gallolyticus strain UCN34. GSP is derived from a 45-residue precursor encoded by gsp and is predicted to be processed to a 24-mer peptide by cleavage of the amino-terminal leader sequence after a double glycine motif and then exported to the extracellular environment by the BlpAB transporter. However, GSP was previously isolated as a 21-mer peptide from S. gallolyticus subsp. gallolyticus TX20005 ([10]). We first confirmed by mass spectrometry analysis that GSP isolated from culture supernatants of strain UCN34 was strictly identical to the 21-mer peptide previously purified from strain TX20005 (Fig. S1). […] Therefore, we chemically synthesized GSP 21-mer and GSP 24-mer peptides to test their efficiency in activating gallocin gene transcription. To do so, we used a reporter S. gallolyticus subsp. gallolyticus strain, UCN34, in which the endogenous gsp gene has been deleted and which contains a plasmid expressing gfp under the control of the gallocin gene promoter (PgllA) ([33]).
Fluorescence and absorbance measurements were recorded using a Biotek Synergy H1 microplate reader using Gen5 data analysis software (v. 3.03). Biological assays were performed in triplicate per trial. EC50s from three trials were calculated using GraphPad Prism software (v. 7.0) using a sigmoidal curve fit.
Stock solutions of peptides (1 mM) were prepared in dimethyl sulfoxide (DMSO) and stored at 4°C in sealed glass vials. […] Black polystyrene 96-well microtiter plates (Costar) were used for the GFP cell-based reporter assays.
Peptide stock solutions were serially diluted with DMSO in either 1:2, 1:3, or 1:5 dilutions, and 2 μl of the diluted solution was added to each of the wells in a black 96-well microtiter plate. Each concentration was tested in triplicate, with DMSO only used as a negative control. Screening of peptide analogs was conducted using the S. gallolyticus subsp. gallolyticus UCN34 Δgsp pTCVΩPgllA-gfp strain. An overnight culture was used to make a fresh 2-ml culture without EM using a 1:10 dilution on the day of the experiment and incubated in a CO2 incubator (37°C with 5% CO2) for 3 to 4 h to reach mid-log to late log phase of growth (OD600 = 0.6 to 0.9). A final 1:10 dilution was made on a larger scale (20 ml) without EM and used for the assay, where 198 μl diluted bacterial culture was added to each well of the microtiter plate containing peptides. Plates were incubated at 37°C with shaking at 200 rpm. Fluorescence (excitation, 485 nm; emission, 516 nm) and optical density at 600 nm (OD600) readings were recorded for each well using a plate reader. Measurements were taken 1 h after inoculation and were recorded every 20 to 30 min for up to 3 h to capture the maximum fluorescence signal. The maximum fluorescence signal was normalized with the OD600 value and used to construct dose curves to determine the EC50.

[2] = S. mutans ΔcomC washed cells in saline solution; conditions: S. mutans SMCC3 (ΔcomC), 37°C, up to 30 min
[3] = washed UCN34 Δgsp cells in sterile saline solution (0.9% [wt/vol] NaCl); conditions: S. gallolyticus subsp. gallolyticus UCN34 Δgsp, 37°C, up to 30 min
[4] = washed UCN34 ΔsepM cells in sterile saline solution (0.9% [wt/vol] NaCl); conditions: S. gallolyticus subsp. gallolyticus UCN34 ΔsepM, 37°C, up to 30 min

Row | Sequence | EC50 [1] | other results
1 | DFLIVGPFDWLKKNHKPT [GSP-des-K19-A21] | > 1000 nM | 
2 | DFLIVGPFDWLKKNHKPTKH [GSP-des-A21] | > 1000 nM | 
3 | DFLIVGPFDWLKKNHKPTK [GSP-des-H20-A21] | > 1000 nM | 
4 | DFLIVGPFDWLKKNHKPTAHA [GSP K19A] | 106 nM | 
5 | LKKNHKPTKHA [GSP-des-D1-W10] | > 1000 nM | 
6 | DFLIVGPFDWLKKNHKPTKHA |  | cleaved bond [2]: L3-I4, 30 min; cleaved bond [3]: L3-I4, 30 min
7 | KNKDFLIVGPFDWLKKNHKPTKHA |  | cleaved bond [3]: L3-I4, 30 min; not cleaved [3]: Degradation of KNK-GSP to GSP was not observed (30 min); cleaved bond [4]: L3-I4, 30 min; not cleaved [4]: Degradation of KNK-GSP to GSP was not observed (30 min)
8 | DFLIVGPFDALKKNHKPTKHA [GSP W10A] | > 1000 nM | 
